Assay [1] addresses T1, Long-chain-fatty-acid--AMP ligase FadD28 (Mycobacterium tuberculosis, UniProt P9WQ59).
T1 sequence (P9WQ59 whole entry): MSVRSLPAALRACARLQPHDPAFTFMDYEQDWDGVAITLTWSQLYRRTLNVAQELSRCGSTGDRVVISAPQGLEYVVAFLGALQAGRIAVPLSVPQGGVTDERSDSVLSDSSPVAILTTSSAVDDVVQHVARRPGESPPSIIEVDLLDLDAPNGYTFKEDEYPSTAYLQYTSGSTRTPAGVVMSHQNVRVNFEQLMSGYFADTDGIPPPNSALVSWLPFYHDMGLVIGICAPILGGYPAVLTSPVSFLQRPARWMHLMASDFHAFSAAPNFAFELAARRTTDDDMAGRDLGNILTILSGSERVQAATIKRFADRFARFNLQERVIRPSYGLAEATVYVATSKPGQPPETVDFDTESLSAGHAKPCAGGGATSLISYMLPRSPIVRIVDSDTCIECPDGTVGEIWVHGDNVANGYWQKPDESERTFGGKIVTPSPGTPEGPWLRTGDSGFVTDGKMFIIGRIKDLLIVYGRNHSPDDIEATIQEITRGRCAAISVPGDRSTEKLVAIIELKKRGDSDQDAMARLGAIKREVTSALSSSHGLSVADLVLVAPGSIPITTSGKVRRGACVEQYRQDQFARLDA
Briefly: Fluorescence polarization aasay to screen for inhibitors that compete for the binding of FadD28 to a bisubstrate Measured in Biochemical System Using Plate Reader - 2147-01_Inhibitor_Dose_CherryPick_Activity. The format is functional, Mycobacterium tuberculosis H37Rv. (In general: Fluorescence polarisation rises when a labelled molecule tumbles more slowly, as on binding a larger partner.)

The next assay concerns the target T2, Caspase-3 (Homo sapiens, UniProt P42574).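 Further: Dose-response selectivity test against caspase-3 for candidate inhibitors of sentrin-specific proteases (SENPs).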
T2 sequence (P42574 whole entry): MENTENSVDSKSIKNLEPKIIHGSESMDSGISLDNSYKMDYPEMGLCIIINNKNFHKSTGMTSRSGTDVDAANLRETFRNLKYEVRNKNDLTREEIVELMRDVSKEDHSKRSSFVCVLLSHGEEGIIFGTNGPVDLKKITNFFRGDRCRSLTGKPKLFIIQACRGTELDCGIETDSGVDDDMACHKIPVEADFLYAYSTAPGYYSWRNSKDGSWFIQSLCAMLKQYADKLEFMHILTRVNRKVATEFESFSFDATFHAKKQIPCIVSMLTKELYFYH
The format is functional.

Assay [2] deals with T3, Sentrin-specific protease 7 (Homo sapiens, UniProt Q9BQF6).
T3 sequence (Q9BQF6 whole entry): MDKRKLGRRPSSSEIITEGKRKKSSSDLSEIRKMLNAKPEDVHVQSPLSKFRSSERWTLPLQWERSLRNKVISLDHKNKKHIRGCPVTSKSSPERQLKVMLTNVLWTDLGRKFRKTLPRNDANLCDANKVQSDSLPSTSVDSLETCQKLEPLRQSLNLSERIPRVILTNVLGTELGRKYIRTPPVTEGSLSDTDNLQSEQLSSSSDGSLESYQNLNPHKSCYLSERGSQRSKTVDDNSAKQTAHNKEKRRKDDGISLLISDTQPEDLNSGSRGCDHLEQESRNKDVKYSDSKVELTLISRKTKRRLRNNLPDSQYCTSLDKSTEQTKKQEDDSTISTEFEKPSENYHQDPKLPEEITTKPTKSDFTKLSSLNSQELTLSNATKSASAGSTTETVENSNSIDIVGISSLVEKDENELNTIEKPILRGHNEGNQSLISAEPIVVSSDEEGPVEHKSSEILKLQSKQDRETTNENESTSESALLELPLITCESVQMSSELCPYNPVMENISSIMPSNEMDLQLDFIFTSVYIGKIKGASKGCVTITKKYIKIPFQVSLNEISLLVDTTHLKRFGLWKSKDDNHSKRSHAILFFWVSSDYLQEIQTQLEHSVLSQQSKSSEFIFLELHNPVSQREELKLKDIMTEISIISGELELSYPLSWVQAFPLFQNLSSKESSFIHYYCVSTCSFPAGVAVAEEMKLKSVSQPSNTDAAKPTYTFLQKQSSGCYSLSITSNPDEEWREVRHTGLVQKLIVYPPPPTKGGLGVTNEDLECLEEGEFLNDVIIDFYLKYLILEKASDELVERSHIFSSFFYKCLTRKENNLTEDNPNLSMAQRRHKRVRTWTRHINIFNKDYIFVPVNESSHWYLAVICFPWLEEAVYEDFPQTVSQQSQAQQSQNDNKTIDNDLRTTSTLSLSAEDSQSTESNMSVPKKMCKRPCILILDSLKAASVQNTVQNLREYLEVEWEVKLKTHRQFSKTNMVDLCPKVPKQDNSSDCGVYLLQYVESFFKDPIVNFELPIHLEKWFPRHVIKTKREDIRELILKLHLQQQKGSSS
It is filed as functional.

Assay [3] has as its target T4, Sentrin-specific protease 6 (Homo sapiens, UniProt Q9GZR1).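 Further: Luminescence-based dose-response confirmatory assay of SENP6 inhibition, following up an ultra-high-throughput screen.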
T4 sequence (Q9GZR1 whole entry): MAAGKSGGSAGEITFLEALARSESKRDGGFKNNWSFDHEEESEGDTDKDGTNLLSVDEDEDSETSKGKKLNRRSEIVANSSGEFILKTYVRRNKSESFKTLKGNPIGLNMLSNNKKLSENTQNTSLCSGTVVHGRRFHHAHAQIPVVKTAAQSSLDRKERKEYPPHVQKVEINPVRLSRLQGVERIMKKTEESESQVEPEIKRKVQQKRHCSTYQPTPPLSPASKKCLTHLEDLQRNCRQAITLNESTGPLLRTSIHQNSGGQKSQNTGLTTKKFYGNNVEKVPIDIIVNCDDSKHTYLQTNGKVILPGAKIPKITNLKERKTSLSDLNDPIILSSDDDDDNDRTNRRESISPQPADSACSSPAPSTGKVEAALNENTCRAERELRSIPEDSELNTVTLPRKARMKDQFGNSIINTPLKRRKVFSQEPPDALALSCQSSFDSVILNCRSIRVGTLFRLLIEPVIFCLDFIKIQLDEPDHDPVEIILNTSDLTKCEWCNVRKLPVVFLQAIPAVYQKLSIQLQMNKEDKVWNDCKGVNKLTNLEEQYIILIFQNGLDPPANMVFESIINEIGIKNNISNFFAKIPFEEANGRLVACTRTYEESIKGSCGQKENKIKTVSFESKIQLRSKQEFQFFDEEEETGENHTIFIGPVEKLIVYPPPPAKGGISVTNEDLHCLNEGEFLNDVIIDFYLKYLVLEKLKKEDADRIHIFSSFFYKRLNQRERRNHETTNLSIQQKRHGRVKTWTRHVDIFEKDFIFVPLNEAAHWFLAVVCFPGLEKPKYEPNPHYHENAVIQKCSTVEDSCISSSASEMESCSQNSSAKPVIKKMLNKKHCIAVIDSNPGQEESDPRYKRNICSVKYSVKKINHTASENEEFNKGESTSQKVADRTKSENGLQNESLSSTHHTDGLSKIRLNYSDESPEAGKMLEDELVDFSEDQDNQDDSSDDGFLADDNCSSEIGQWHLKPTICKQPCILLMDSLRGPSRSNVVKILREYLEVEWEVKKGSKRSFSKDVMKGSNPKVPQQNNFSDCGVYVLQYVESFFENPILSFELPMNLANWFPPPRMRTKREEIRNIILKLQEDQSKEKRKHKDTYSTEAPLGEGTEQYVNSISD
It is filed as functional.

In assay [4] the target is T5, Sentrin-specific protease 8 (Homo sapiens, UniProt Q96LD8).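 Further: luminescence read-out of SENP8 inhibition, dose-response confirmation following an ultra-high-throughput screen.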
T5 sequence (Q96LD8 whole entry): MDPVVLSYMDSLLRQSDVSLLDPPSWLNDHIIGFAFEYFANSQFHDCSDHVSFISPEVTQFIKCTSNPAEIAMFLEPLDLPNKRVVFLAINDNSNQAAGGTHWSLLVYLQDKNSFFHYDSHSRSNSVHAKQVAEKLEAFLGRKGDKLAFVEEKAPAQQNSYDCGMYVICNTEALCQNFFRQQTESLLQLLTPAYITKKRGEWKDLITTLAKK
It is filed as functional.

Assay [5] deals with Heat shock protein HSP 90-alpha (Homo sapiens, UniProt P07900). The format is functional, organism-based.
Assay [6] deals with T6, Hepatocyte nuclear factor 4-alpha (Homo sapiens, UniProt P41235).
T6 sequence (P41235 whole entry): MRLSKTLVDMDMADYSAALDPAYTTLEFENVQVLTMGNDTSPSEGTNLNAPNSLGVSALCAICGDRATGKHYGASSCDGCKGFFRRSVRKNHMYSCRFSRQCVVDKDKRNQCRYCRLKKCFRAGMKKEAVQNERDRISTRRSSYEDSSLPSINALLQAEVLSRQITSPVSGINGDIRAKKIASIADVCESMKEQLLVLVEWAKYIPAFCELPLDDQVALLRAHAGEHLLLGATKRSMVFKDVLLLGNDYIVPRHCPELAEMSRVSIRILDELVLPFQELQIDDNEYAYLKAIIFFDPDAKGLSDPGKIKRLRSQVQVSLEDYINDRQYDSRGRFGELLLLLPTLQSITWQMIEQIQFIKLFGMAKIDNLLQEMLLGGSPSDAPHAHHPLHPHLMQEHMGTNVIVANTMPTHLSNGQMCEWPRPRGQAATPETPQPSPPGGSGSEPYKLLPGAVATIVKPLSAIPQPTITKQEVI
The format is functional, cell-based.

Assay [7] can be described thus: microbe, parasite or virus in culture. The format is functional. As to conditions: Mycobacterium tuberculosis.
Assay [8] addresses T7, Heat shock factor protein 1 (Mus musculus, UniProt P38532).
T7 sequence (P38532 whole entry): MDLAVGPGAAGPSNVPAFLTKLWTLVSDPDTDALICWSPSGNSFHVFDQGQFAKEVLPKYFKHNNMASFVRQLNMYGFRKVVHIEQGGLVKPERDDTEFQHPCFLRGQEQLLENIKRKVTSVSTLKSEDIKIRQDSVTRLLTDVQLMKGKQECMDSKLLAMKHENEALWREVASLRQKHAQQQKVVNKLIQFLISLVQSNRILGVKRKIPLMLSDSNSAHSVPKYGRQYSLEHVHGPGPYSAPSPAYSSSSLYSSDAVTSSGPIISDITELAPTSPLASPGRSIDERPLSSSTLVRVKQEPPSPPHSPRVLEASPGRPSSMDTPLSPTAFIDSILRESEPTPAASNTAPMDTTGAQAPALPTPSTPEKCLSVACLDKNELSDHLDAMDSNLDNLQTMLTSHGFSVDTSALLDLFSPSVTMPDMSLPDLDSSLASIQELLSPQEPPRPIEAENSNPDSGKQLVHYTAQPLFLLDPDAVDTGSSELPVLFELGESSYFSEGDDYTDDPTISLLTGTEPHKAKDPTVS
Briefly: inhibition of MG132-induced HSE-luciferase signal, confirmation, cell-based, NIH3T3, luminescence, dose retest (AID 2382).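 Further: NIH3T3 fibroblasts with HSF1-driven luciferase reporter stressed by proteasome inhibitor MG132; luminescence from HSF1-driven luciferase expression after 8 hours of MG132 stress.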 It is filed as functional.

Assay [9] addresses Luciferin 4-monooxygenase (Photinus pyralis, UniProt P08659). Briefly: firefly luciferase enzyme inhibitors, dose response, biochemical, luminescence (AID 1891).
A short description of assay [10]: Luminescence Cell-Based Dose Confirmation HTS to Identify Inhibitors of Platelet Dense Granule Release. [Related pubchem assays: 1663 (Primary HTS), 1678 (Summary of Project)]. The format is functional.
The next assay has as its system HEK293. Briefly: inhibitors of LMP1-driven NF-kB reporter, dose response, cell-based, HEK293, luciferase, cherry-pick (AID 588343). As to conditions: Homo sapiens. The format is functional.

By AC50 is commonly meant the concentration giving half of the maximal activity seen. Broadly, the IC50 is the concentration that inhibits the measured activity by half. By EC50 is commonly meant the concentration at which the effect is half-maximal.

Calls of active or inactive are those of the source. Where only a bound is given, the exact number is not on record here.

Luciferin 4-monooxygenase, sequence (P08659 whole entry): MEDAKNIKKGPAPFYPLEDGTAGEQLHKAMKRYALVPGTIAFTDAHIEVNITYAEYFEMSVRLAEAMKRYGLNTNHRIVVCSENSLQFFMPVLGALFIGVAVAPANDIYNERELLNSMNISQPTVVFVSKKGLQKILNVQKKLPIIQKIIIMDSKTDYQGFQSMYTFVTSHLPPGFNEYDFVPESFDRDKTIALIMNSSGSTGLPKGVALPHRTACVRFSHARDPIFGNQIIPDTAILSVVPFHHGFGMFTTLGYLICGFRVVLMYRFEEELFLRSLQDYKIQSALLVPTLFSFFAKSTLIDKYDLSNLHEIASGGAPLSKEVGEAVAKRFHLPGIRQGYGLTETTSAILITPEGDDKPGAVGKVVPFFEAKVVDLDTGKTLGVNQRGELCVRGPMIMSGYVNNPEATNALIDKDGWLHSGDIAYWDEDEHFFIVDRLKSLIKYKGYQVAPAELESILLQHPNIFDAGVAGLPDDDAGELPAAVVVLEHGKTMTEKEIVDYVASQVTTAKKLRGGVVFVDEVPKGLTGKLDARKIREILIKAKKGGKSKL

`Oc1ccc(O)c(C=NNC(=S)NC2CC3CC2C2C=CCC32)c1` (stereo not drawn): in [1], the AC50 was > 100 µM (inactive).
As for `CCOc1cccc(-c2nc3cc(C)ccc3o2)c1`, the concentration for half-maximal inhibition (IC50) on Caspase-3 was 18.2 µM (active); in assay [2] it was 7.7 µM (active); in [3] it was 15.6 µM (active); in assay [4] it was 39.6 µM (active).
As for `Cc1ccc(C(C[N+](=O)[O-])c2c(N)n(C)c(=O)n(C)c2=O)cc1` (stereo not drawn), the concentration at half-maximal activity (AC50) in [5] was 2.5 µM (active).
With `COc1ccccc1C=CC(=O)C=Cc1ccccc1OC`, the half-maximal inhibitory concentration (IC50) in assay [6] is 6.46 µM (active).
Take `Cc1nc(-c2ccccc2)sc1C(=O)/C=C/c1ccccc1`: the CC50 in assay [7] is 36.9 µM (active). In addition, in assay [6], the IC50 was 3.43 µM (active).
For `Cc1ccc(/C(=N/Nc2nc3ccccc3s2)C2=C(O)c3ccccc3C2=O)cc1`, the AC50 in assay [1] is 41.1 µM (active).
As to `Cc1ccc(S(=O)(=O)NC(=NNC(=O)c2cccc(Cl)c2)c2ccccc2)cc1`, the half-inhibitory concentration (IC50) on Caspase-3 was 10.3 µM (active); in [2], 5.83 µM (active); in assay [3], 13.6 µM (active); in assay [4], 19.4 µM (active).
In the case of `CCC1(C)N=C(c2ccc3c(c2)OCO3)CC(c2ccccc2O)N1` (stereo not drawn), the half-inhibitory concentration (IC50) in [6] is 1.87 µM (active).
As to `COc1cc2c(cc1OC)-c1cc(Nc3ccc4c(c3)OCCO4)nc(=O)n1CC2`, the concentration for a half-maximal effect (EC50) in assay [8] is 2.04 µM (active); in assay [9], 17.4 µM (active); in assay [10], 4.63 µM (active). In the assay on HEK293, the AC50 is 27.3 µM (active).
As to `CCOC(=O)CN1C(=O)S/C(=C\c2ccc(-c3cccc(C(=O)O)c3C)o2)C1=O`, the IC50 is 45.4 µM (active) at Caspase-3, 6.97 µM (active) in [2], 18 µM (active) in assay [3] and 16.2 µM (active) in assay [4].

Source of the values: ChEMBL document CHEMBL1201862, “PubChem BioAssay data set” (2004).
